Test results reported in patent US6670378B2, “Method of treating Parkinson's disease” (Pharmacia & Upjohn Company, priority 2001, dated 2003).

Experiments:
[1] = Plasma/blood levels of the piperidine derivative and its N-dealkylated metabolite after two weeks of chronic dosing (HPLC-MS/MS); format: in vivo, Male Sprague-Dawley rats; conditions: plasma one hour after evening dose
Procedure: In order to perform the brain monoamine neurochemistry analysis, the brains were harvested following 14 days of chronic drug treatment. This was performed by decapitating the rats one hour after the evening drug administration, collecting the trunk blood into EDTA-treated tubes, immediately removing the brains, freezing the brains in small aluminum pans on dry ice and then storing at −80° C. […] Blood was spun and plasma was frozen at −80° C. for analysis of S-(−)-3-[3-(methylsulfonyl) phenyl]-1-propyl-piperidine and its major N-dealkylated metabolite. Plasma concentrations of S-(−)-3-[3-(methylsulfonyl)phenyl]-1-propyl-piperidine and its despropyl metabolite were quantitated using on-line high performance liquid chromatography (HPLC) tandem mass spectroscopy (MS/MS) with an atmospheric pressure chemical ionization (APCI) interface. […] S-(−)-3-[3-(methylsulfonyl)phenyl]-1-propyl-piperidine (0.1 μg/mL, 25 μL) were quantitatively added to 100 μL of plasma sample. […] The linear range of the calibration curve calculated in plasma was 0.02 nmol/mL to 40 nmol/mL for S-(−)-3-[3-(methylsulfonyl) phenyl]-1-propyl-piperidine and 00.01 nmol/mL to 20 nmol/mL for its N-dealkylated metabolite. […] Product ions with m/z 173 were monitored following CID of the protonated stable isotope (m/z 286). […] Study sample concentrations were calculated by reference to this equation.

[2] = system: 6-OH-dopamine lesioned rats; experiment: L-DOPA induced behavioral sensitization (contralateral rotations) in unilaterally 6-OH-dopamine lesioned rats; format: in vivo, Male Sprague-Dawley rats
Procedure: Repeated administration of dopamine agonists to 6-OH-dopamine lesioned rats results in behavioral sensitization or enhanced rotational behavior in the rats. This effect is believed to mirror the development of motor complications including L-DOPA induced involuntary movements such as dyskinesias in Parkinson's Disease patients.
Male Sprague-Dawley rats having lesion surgery were provided. […] The rats were anesthetized with 60 mg/kg i.p. sodium pentobarbital and then placed in a stereotaxic apparatus. A small hole was drilled through the skull of the rats and a 30-gauge stainless tubing was lowered to the right (one study) or left (two studies) medial forebrain bundle. 8 μg/4 μL (8μ free base) of 6-OH-dopamine solution was injected into the medial forebrain bundle at a rate of 1 μL/min. Following surgery, the incision was closed with clips and ointment containing a local anesthetic/antibiotic was applied to the incision area. The rats were returned to their home cages and allowed one week to recover from surgery.
The rats were group housed in wire mesh hanging cages with free access to food and water and kept on 12-hour light:12-hour dark cycles with the light being on from 6:00 a.m. to 6:00 p.m. All behavioral testing was done between 9:00 a.m. to 6:00 p.m.
Two to three weeks after the surgery, the rats were screened to assess the degree of lesion by measuring their net turning response to a single dose of 0.1 mg/kg s.c. of apomorphine HCl in 0.9% saline. The total turns were recorded in discrete 10 minute intervals. Each rat was connected by a lightweight harness and tether to a rotometer comprising a swivel with a mechanical counter at the top of a clear plastic cylindrical cage. The rats were used for the experiments if they had at least 30 contralateral turns in 10 minutes, with contralateral being away from the side of the lesion. In addition to screening out incomplete lesions, the response to apomorphine was used to separate the rats into balanced treatment groups, prior to the start of chronic dosing. The rats were ranked by cumulative net turning response and an equal number of high and low responders were placed in each treatment group.
All of the injections were given in a volume of 2 ml/kg and, with the exception of L-DOPA+benserazide 15+5 mg/kg, i.p., all injections were subcutaneous. All chronic treatment was given bid, 6-8 hours apart. […] S-(−)-3-[3-(methylsulfonyl)phenyl]-1-propyl-piperidine was dissolved in 0.9% sterile saline and administered at either 10 or 30 mg/kg subcutaneously 20 minutes before L-DOPA or together with the L-DOPA. The basal turning measurement started immediately after the rats received the first injections on day 1 with the activity being measured for 4-6 hours after dosing. The turning activity was measured again on days 7 and 14 and compared to the activity on day 1. […] Analysis of variance was used for statistical calculations and probability levels of <0.05 was regarded as being statistically significant.

[3] = system: unilaterally dopamine-lesioned monkeys; conditions: cited from earlier work
[4] = Post mortem brain (prefrontal cortex) levels of L-DOPA after 14 days of chronic treatment; conditions: L-DOPA alone vs L-DOPA combined with the piperidine derivative
Procedure: In order to perform the brain monoamine neurochemistry analysis, the brains were harvested following 14 days of chronic drug treatment. This was performed by decapitating the rats one hour after the evening drug administration, collecting the trunk blood into EDTA-treated tubes, immediately removing the brains, freezing the brains in small aluminum pans on dry ice and then storing at −80° C. Brain levels of L-DOPA and dopamine were analyzed by means of liquid chromatography and electrochemical detection according to standard methodology described in the literature.
After two weeks of the administering of the L-DOPA and benserazide, tissues were taken post-mortem from the unilateral striatum and prefrontal cortex and analyzed for monoamines and their metabolite levels.

[5] = system: rotational behavior induced by apomorphine, L-DOPA and quinpirole; conditions: in vivo; cited from earlier work

SMILES	effect of chronic treatment with L-DOPA on blood levels [1]	rotational behavior in animals with unilateral lesions of the nigro-striatal dopamine neurons ([2]; L-DOPA+benserazide 15+5 mg/kg i.p.)	behavioral sensitization, measured as enhanced number of contralateral rotations ([2]; L-DOPA+benserazide 15+5 mg/kg i.p. bid, two separate experiments)	L-DOPA-induced contraversive turning behavior [3]	effect of co-treatment on brain levels of L-DOPA [4]	motor impairment such as akinesia or dystonia [5]	rotational behavior induced by apomorphine, L-DOPA and quinpirole [5]	behavioral sensitization induced by L-DOPA (enhanced number of contralateral rotations) ([2]; 10 or 30 mg/kg s.c. bid, 20 minutes before or together with L-DOPA+benserazide 15+5 mg/kg i.p., days 7 and 14 vs day 1)	antagonism of basal rotational response induced by L-DOPA ([2]; 10 or 30 mg/kg s.c. with L-DOPA+benserazide 15+5 mg/kg i.p., both experiments)	rotational behavior or akinesia induced by the compound by itself ([2]; compound alone, s.c.)	time course of antagonism of L-DOPA sensitization (simultaneous vs 20 minutes before L-DOPA) ([2]; given simultaneously with L-DOPA (FIG. 2) vs 20 minutes before (FIG. 1))
CS(=O)(=O)c1cccc([C@@H]2CCCNC2)c1 [N-dealkylated metabolite]	did not significantly effect										
N[C@@H](Cc1ccc(O)c(O)c1)C(=O)O [L-DOPA, reference compound]		induces rotational behavior	repeatedly exhibited								
CCCN1CCC[C@@H](c2cccc(S(C)(=O)=O)c2)C1 [S-(−)-3-[3-(methylsulfonyl)phenyl]-1-propyl-piperidine]	did not significantly effect			attenuating	did not appear to effect the brain levels of L-DOPA	without inducing motor impairment	attenuated	blocked by both doses	in neither experiment did the piperidine derivative antagonize the basal rotational response	did not induce rotational behavior or akinesia by itself	most optimal antagonism occurred when the piperidine derivative was given simultaneously with L-DOPA
